Results on 1 compound are retold here after US12605362B2, “Eletriptan hydrobromide for treatment of spinal cord injury and improvement of locomotor function” (TECHNOPHAGE, INVESTIGAÇÃO E DESENVOLVIMENTO EM …, priority 2020, dated 2026).

Test [1] deals with mice with T9 contusion type of injury. The test can be described thus: bladder function score during manual bladder expression after T9 contusion SCI. It is filed as in vivo. To be noted: vs Vehicle. On the procedure:
(§1) A moderate-severe contusion-type of injury was performed on adult C57BL/6 female mice (10-12 weeks) with an Infinite Horizon Impactor (PSI)^30. All surgeries were performed under aseptic conditions. Briefly, under deep anesthesia with Ketamine and Xylazine (120 mg/kg and 16 mg/kg respectively, i.p.) mice received a dorsal laminectomy at the level of 9th thoracic vertebra (T9). After securing the lateral processes of the 8th thoracic vertebra (T8) and 10th thoracic vertebra (T10) with a stainless-steel impactor tip, a controlled force-defined impact at 75 kdyne was delivered to the exposed spinal cord^28,30. Then, muscle and skin were closed with 4.0 polyglycolic acid (PGA) absorbable sutures (Safil, G1048213). In this study, mice were excluded when the actual displacement value was outside the interval 500-700 μm or if the actual force after impact was >2SD 75 Kdyne. Immediately after injury, mice were injected subcutaneously with 0.5 ml of sterile saline and then daily for 5 days. […] Weight was monitored daily until 15 days-post-injury (dpi) and then weekly for the duration of the study and a high caloric pellet (Supreme Mini-Treats™ S05478 and S05472) was provided as a dietary supplement since a 10% weight loss was typically observed in this SCI model upon injury. […]
Additionally, we also evaluated the bladder dysfunction status, which is a common effect seen after a SCI^3,37. […]

The test system is the same in test [2]. The test can be described thus: FluoroMyelin Green staining and white matter sparing analysis. It is filed as in vivo. To be noted: 42 dpi; at lesion epicentre and over 700 μm rostrally and caudally, vs Vehicle. The protocol: as §1, with “G1048213).” for “G1048213). In this study, mice were excluded when the actual displacement value was outside the interval 500-700 μm or if the actual force after impact was >2SD 75 Kdyne. Immediately after injury, mice were injected subcutaneously with 0.5 ml of sterile saline and then daily for 5 days.”
To quantify demyelination, one set of sections spaced 100 μm apart and spanning the entire block was stained with FluoroMyelin™ Green (ThermoFisher Scientific, F34651) for 1 hour. Z-stack compositions were acquired in a motorized inverted widefield fluorescence microscope (Zeiss Cell Observer, Carl Zeiss MicroImaging) with 10× magnification. […]

For test [3] the test system is unchanged. The test can be described thus: fibrotic scar quantification (PDGFRβ / GFAP immunohistochemistry). To be noted: 42 dpi, vs Vehicle. It is filed as in vivo. The protocol:
as §1
(§2) For immunohistochemistry in sections, OCT was removed from the cryosections using PBS (30 minutes). […] For activated microglia quantification, sections were counterstained with DAPI. […]
One set of sections was stained with anti-PDGFRβ and anti-GFAP to outline the border of the fibrotic scar area. Z-stack compositions were acquired in a motorized inverted widefield fluorescence microscope (Zeiss Cell Observer, Carl Zeiss MicroImaging) with 20× magnification. Fiji software was used to manually outline and calculate the PDGFRβ^+ area and total cross-sectional area to thereafter quantify the percentage of fibrotic scar area per total cross-sectional area. The rostral and caudal extents of fibrotic lesion were determined by inspection. […]

For test [4] the test system is unchanged. Nature of the test: activated microglia quantification and morphology (P2Y12 / F4/80 immunohistochemistry). It is filed as in vivo. Conditions: 42 dpi; for number of P2Y12+ F4/80+ (activated microglia) cells: vs Vehicle. The protocol: A moderate-severe contusion-type of injury was performed on adult C57BL/6 female mice (10-12 weeks) with an Infinite Horizon Impactor (PSI)^30. All surgeries were performed under aseptic conditions. Briefly, under deep anesthesia with Ketamine and Xylazine (120 mg/kg and 16 mg/kg respectively, i.p.) mice received a dorsal laminectomy at the level of 9th thoracic vertebra (T9). After securing the lateral processes of the 8th thoracic vertebra (T8) and 10th thoracic vertebra (T10) with a stainless-steel impactor tip, a controlled force-defined impact at 75 kdyne was delivered to the exposed spinal cord^28,30. Then, muscle and skin were closed with 4.0 polyglycolic acid (PGA) absorbable sutures (Safil, G1048213). In this study, mice were excluded when the actual displacement value was outside the interval 500-700 μm or if the actual force after impact was >2SD 75 Kdyne. Immediately after injury, mice were injected subcutaneously with 0.5 ml of sterile saline and then daily for 5 days. During this experiment, mice underwent gentle bladder expression twice daily until they were voiding on their own. Weight was monitored daily until 15 days-post-injury (dpi) and then weekly for the duration of the study and a high caloric pellet (Supreme Mini-Treats™ S05478 and S05472) was provided as a dietary supplement since a 10% weight loss was typically observed in this SCI model upon injury. […]
as §2
To quantify the activated microglia one set of spinal cord sections were stained with anti-P2Y12 (a microglia specific marker) and anti-F4/80 (a pan macrophage marker) and counterstained with […] DAPI. Z-stack compositions were acquired in a motorized inverted widefield fluorescence microscope (Zeiss Cell Observer, Carl Zeiss MicroImaging) with 20× magnification. […]

For another test, the target named is 5-HT1D (Homo sapiens, UniProt P28221). Conditions: serotonin receptor agonist; cited from earlier work.
Chain of 5-HT1D (P28221 whole entry, species assumed): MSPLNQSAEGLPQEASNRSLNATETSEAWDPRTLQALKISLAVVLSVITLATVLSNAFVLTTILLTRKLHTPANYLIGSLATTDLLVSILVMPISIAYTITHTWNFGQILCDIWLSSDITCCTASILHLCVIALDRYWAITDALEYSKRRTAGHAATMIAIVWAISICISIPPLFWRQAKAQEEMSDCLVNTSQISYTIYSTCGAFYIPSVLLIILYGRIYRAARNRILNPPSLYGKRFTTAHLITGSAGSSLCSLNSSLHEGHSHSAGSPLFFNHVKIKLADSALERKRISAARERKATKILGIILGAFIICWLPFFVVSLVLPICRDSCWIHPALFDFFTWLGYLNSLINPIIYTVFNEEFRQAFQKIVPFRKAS
For another test, the target named is T1, 5-HTIF (Homo sapiens, UniProt P30939).
T1 sequence (P30939 1-366): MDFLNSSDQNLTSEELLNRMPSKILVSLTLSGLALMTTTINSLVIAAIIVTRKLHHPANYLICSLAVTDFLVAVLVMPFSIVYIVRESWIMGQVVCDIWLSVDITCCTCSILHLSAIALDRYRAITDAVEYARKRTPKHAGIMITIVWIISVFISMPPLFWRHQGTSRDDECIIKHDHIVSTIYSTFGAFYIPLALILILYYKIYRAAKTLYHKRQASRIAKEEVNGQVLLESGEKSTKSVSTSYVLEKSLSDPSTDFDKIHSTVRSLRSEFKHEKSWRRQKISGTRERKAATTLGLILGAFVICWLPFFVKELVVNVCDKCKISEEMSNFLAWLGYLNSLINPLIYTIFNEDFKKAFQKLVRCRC
Conditions: serotonin receptor agonist; cited from earlier work.

Molecules are shown by their SMILES. Where a name gives a salt, the structure may show the parent alone.

In the case of `CN1CCC[C@@H]1Cc1c[nH]c2ccc(CCS(=O)(=O)c3ccccc3)cc12` [Eletriptan Hbr, Eletriptan Hydrobromide], the “volumes of retained urine (bladder score 0 to 3)” value is on record as “statistically significant smaller volumes of retained urine” in test [1] (1 dpi) and “no differences between experimental groups” in test [1] (after 1 dpi until the end of the study). Also, in test [2], the “spared white matter per total cross-sectional area” value is “not significantly but consistently higher”. Also, the “extension of PDGFRβ+ lesion core” value in test [3] was “no statistically significant differences”. In addition, the “extension of increased levels of PDGFRβ+ immunostaining” value in test [3] is given as “statistically significant reduction”. Besides, in test [3] (at lesion epicentre), the “area of fibrotic lesion core” value was “no statistically significant differences”. Moreover, the “number of P2Y12+ F4/80+ (activated microglia) cells” value in test [4] was “no statistically significant differences”; in test [4] (at 400 μm rostrally and caudally to the epicentre), “consistently higher”. Moreover, the “P2Y12+ microglia morphology” value in test [4] (sections near or at the epicentre, feature not observed in Vehicle-treated mice) is given as “longer, ramified processes were also observed”. For the same compound, the affinity result at 5-HT1D and on 5-HTIF was “high affinity” in each case.
